Key:
[1] = molecular target: E. coli RNAP (Escherichia coli, UniProt P0A8T7+P0A8V2); assay: Two-batch protocol: transcription in presence of fluoride, wash, then Cas13a detection; assay type: biochemical; settings: fluoride riboswitch template, FIG. 6C
Method: In another exemplary method, two-batch methods included, 30 μL in vitro transcription reactions carried out as described above but without addition of Cas13a, crRNA, labeled RNA oligos, RNase inhibitor. Then, the reaction was washed three times with 500 μL ddH2O using an centrifugal filter (0.5 ml, 10 kDa cutoff). After concentrating the solution to approximately 20 μL, aliquots of 6 μL were taken and added to a 24 μL of a SHERLOCK reaction (described below).
The B. cereus crcB fluoride riboswitch is a regulatory switch that turns on expression of the fluoride efflux pump crcB via selectively binding fluoride over chloride. […] This may be explained in part by an observed inhibition of the assay at fluoride concentrations above 100 μM. To understand whether this effect stems from inhibition of the E. coli RNAP or inhibition of Cas13a, SHERLOCK reactions without RNAP were conducted at varying concentrations of sodium fluoride (FIG. 6A). […] To measure the response of the RNAP to fluoride, an exemplary two-batch protocol was developed (FIG. 6B) to first transcribe RNA in presence of fluoride, then wash out the fluoride and add the washed transcripts to Cas13a. […] The two-batch assay could also be used to wash out Cas13a-inhibiting compounds after transcription that would otherwise interfere with the assay.

[2] = molecular target: crcB fluoride riboswitch; settings: in-line probing; cited from earlier work

Chain of E. coli RNAP (P0A8V2 whole entry): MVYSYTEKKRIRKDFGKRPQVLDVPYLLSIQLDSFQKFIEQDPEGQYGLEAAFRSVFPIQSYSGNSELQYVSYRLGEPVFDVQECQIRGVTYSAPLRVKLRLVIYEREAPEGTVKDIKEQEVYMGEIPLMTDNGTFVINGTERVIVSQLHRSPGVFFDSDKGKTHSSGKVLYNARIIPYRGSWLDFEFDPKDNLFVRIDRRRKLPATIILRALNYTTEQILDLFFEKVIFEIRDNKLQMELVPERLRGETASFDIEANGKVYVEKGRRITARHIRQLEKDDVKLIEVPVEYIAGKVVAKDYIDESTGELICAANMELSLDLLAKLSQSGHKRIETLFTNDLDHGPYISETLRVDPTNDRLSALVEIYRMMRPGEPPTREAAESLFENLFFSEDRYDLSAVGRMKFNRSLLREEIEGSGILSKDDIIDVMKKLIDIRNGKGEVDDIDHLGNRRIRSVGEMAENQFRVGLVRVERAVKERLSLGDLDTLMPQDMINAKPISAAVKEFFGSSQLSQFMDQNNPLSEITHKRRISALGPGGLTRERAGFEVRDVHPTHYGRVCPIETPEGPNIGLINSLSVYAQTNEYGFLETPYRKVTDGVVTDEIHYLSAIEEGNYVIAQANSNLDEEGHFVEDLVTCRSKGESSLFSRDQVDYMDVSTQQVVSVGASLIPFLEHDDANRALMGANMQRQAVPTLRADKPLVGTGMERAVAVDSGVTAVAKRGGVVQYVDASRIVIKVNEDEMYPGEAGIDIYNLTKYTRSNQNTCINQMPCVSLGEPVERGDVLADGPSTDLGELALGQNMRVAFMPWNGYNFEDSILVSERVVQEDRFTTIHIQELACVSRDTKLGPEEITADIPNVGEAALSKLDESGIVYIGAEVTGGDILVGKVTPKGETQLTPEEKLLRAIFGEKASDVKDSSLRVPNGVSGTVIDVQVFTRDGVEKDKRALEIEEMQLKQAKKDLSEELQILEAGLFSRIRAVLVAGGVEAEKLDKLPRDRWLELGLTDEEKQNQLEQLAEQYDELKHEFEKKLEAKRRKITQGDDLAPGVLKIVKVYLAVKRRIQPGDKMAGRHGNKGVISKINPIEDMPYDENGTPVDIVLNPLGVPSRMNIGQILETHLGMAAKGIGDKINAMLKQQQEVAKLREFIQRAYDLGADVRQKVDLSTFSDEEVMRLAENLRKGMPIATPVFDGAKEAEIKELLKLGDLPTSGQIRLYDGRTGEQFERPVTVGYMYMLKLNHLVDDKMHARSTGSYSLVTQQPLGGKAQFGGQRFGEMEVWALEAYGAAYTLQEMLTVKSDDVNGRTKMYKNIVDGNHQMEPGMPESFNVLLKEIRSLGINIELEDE
Chain of E. coli RNAP (P0A7Z4 whole entry, further chain): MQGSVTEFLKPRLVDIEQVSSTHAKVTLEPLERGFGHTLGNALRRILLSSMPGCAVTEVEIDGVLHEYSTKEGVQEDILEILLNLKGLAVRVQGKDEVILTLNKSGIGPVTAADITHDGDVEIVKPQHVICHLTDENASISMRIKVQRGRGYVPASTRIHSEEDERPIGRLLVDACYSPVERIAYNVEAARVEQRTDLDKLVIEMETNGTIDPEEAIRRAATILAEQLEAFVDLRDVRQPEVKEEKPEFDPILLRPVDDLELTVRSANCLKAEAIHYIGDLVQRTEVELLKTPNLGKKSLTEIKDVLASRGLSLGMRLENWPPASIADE
Chain of E. coli RNAP (P0A800 whole entry, further chain): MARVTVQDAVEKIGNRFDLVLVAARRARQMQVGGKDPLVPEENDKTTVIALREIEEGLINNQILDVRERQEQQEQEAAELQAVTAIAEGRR
Chain of E. coli RNAP (P0A8T7 whole entry): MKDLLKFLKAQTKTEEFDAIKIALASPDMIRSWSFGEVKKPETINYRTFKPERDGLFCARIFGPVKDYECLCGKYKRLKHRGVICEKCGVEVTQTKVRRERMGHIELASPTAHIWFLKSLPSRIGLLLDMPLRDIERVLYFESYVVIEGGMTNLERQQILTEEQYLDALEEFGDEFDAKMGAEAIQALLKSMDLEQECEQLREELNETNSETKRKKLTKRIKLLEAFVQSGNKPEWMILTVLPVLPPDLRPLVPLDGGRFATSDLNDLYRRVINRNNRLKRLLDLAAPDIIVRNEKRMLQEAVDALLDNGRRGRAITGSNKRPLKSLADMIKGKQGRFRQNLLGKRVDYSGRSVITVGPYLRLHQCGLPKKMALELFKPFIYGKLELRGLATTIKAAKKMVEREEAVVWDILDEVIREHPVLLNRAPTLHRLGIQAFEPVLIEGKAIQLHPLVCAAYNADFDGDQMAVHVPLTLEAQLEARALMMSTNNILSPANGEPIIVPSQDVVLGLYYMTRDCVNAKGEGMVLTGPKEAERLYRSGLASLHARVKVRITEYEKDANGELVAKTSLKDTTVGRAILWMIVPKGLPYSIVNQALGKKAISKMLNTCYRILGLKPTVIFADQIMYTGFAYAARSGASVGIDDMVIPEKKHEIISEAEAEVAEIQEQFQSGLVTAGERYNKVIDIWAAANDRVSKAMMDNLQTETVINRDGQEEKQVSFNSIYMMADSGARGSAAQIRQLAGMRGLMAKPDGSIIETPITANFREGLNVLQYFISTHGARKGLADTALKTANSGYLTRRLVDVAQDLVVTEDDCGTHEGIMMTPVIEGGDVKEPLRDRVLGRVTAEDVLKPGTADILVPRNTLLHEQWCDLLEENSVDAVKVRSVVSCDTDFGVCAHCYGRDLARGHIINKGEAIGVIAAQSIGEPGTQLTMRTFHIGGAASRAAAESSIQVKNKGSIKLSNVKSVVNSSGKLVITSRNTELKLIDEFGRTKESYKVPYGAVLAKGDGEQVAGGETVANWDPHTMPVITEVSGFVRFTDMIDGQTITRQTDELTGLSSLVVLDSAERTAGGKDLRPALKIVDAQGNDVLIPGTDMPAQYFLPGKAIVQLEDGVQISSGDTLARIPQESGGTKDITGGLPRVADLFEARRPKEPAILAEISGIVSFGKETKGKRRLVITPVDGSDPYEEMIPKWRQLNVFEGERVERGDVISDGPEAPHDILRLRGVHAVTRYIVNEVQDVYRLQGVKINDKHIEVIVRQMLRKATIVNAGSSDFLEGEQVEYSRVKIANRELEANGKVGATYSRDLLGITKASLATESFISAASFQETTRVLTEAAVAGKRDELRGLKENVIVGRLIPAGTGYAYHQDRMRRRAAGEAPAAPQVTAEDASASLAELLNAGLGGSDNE

Structure (SMILES): [F-].[Na+] [fluoride, sodium fluoride]
- concentration that drastically reduced transcriptional activity [1]: ≥ 125 µM
- concentration up to which transcription is induced in a linear manner [1]: ≤ 100 µM
- Kd [2]: ~60 µM

— patent publication US20230279482A1, “COMPOSITIONS, METHODS AND USES FOR QUANTIFYING TRANSCRIPTION AND BIOSENSING OF SMALL MOLECULES USING A NOVEL TYPE VI CRISPR-CAS ASSAY” (THE REGENTS OF THE UNIVERSITY OF COLORADO, A BODY CORPORATE, priority 2020, published 2023)
